Assay results as given in patent US10280170B2, “Substituted 4,5,6,7-tetrahydro-pyrazolo[1,5-a]pyrazine derivatives and 5,6,7,8-tetrahydro-4H-pyrazolo[1,5-a][1,4]diazepine derivatives as Ros1 inhibitors” (Janssen Pharmaceutica NV, priority 2014, dated 2019).
Read-outs that look alike come from different tables or passages of the source.

Columns and labels:
Ros1 enzyme = target: T1, Ros1 enzyme (Homo sapiens, UniProt P08922); assay: Ros1 enzymatic assay; type: biochemical; conditions: Ros1 enzymatic assay; for IC50: read-out: ROS1 pIC50 (converted)
T1 construct: 0.5 μg/ml Ros1 enzyme
T1 sequence (P08922 28-2347): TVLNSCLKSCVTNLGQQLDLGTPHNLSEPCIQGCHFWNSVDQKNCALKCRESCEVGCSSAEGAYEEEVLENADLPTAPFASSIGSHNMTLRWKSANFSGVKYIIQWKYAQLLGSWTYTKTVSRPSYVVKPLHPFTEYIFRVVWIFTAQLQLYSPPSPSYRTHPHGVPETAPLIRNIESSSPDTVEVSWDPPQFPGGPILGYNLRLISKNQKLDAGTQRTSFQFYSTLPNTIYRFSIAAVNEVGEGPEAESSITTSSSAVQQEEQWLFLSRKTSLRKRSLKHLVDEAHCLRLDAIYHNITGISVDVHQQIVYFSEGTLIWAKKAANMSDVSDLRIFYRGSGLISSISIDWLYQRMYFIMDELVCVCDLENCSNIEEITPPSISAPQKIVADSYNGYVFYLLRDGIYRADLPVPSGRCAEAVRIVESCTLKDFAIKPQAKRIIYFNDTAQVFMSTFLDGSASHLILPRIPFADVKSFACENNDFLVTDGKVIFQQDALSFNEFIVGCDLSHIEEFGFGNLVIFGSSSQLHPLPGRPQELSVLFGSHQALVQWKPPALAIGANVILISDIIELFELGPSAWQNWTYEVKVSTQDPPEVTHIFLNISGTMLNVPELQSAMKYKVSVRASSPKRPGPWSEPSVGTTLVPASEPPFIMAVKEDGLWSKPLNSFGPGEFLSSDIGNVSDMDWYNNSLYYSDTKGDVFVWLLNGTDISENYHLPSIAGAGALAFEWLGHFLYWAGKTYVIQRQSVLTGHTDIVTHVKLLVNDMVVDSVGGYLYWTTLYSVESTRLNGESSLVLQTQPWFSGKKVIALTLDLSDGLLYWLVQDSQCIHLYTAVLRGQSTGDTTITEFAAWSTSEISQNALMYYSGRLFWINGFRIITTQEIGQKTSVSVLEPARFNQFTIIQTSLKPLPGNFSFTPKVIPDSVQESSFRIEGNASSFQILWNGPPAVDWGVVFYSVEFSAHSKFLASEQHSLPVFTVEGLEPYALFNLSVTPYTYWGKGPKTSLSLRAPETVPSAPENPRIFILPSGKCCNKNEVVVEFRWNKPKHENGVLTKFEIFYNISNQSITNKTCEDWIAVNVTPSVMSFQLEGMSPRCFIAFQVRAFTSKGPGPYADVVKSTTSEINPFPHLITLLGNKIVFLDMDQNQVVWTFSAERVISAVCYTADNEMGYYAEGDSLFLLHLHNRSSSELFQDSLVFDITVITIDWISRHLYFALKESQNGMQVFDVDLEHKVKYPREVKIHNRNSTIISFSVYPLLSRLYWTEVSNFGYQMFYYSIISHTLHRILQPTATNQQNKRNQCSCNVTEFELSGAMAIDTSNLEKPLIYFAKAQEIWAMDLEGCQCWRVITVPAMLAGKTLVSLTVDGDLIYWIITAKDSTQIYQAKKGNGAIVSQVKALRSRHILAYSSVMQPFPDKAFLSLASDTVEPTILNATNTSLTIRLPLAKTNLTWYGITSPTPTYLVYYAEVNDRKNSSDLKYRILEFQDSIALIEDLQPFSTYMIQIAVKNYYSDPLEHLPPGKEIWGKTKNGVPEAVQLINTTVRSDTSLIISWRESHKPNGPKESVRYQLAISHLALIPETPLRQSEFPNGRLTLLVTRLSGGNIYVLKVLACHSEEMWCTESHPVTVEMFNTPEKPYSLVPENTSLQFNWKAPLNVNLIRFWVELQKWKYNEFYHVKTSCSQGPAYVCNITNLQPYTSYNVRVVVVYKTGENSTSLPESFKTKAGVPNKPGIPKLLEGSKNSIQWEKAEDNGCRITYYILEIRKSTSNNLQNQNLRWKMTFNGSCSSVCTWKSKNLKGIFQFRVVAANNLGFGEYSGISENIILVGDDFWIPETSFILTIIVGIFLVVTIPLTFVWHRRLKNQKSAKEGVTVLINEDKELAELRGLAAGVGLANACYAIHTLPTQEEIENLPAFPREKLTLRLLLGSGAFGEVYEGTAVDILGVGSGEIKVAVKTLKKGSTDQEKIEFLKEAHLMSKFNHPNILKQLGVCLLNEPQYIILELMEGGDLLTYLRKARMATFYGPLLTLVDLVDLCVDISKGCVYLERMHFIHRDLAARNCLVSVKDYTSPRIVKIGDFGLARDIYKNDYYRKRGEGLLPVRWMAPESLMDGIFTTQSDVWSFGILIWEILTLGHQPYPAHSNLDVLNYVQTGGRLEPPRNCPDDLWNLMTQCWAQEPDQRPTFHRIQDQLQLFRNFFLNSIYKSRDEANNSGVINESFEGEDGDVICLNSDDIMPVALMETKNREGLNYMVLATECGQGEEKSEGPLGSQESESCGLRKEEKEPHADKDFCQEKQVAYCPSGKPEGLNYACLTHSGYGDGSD
Experimental: Compounds were spotted onto white 384-well Proxiplate plus plates (Perkin Elmer) to which 5 μl of enzyme mix (0.5 μg/ml Ros1 enzyme, 50 mM Tris-HCl pH7.5, 1 mM EGTA, 10 mM MgCl2, 0.01% Tween-20) and 5 μl of substrate mix (6 μg/ml IRS-Tide [American Peptide Company], 20 μM ATP, 13.33 μCi/ml ATP (adenosine 5′-triphosphate) P^33, 50 mM Tris-HCl pH7.5, 1 mM EGTA (ethylene glycol-bis(2-aminoethylether)-N,N,N′,N′-tetraacetic acid), 10 mM MgCl2, 0.01% Tween-20) were added. After incubation for 120 minutes at room temperature, 10 μl of stop reaction buffer (5 mM EDTA, 50 μM ATP, 0.1% BSA (bovine serum albumin), 0.1% Triton X-100, 50 mM Tris-HCl pH7.5, 1 mM EGTA, 10 mM MgCl2, 0.01% Tween-20) containing 2 mg/ml streptavidin coupled polystyrene imaging beads (Amersham Biosciences) was added and incubated for 15 minutes at room temperature. Plates were centrifuged for 3 minutes at 1500 rpm and signals detected in a LEADseeker imaging system (GE).

[1] = target: T2, Ba/F3 cells containing Ros1 wild-type protein (Homo sapiens, UniProt P08922, cells depend on it, form not given); assay: Ba/F3-Ros1 cell proliferation assay, wild-type Ros1; type: cell-based, murine; conditions: without IL-3
T2 construct: The background only speaks of 'a number of different unrelated proteins' and names SLC34A2-ROS1 for HCC78 cells
T2 sequence (P08922 whole entry, stated change not applied): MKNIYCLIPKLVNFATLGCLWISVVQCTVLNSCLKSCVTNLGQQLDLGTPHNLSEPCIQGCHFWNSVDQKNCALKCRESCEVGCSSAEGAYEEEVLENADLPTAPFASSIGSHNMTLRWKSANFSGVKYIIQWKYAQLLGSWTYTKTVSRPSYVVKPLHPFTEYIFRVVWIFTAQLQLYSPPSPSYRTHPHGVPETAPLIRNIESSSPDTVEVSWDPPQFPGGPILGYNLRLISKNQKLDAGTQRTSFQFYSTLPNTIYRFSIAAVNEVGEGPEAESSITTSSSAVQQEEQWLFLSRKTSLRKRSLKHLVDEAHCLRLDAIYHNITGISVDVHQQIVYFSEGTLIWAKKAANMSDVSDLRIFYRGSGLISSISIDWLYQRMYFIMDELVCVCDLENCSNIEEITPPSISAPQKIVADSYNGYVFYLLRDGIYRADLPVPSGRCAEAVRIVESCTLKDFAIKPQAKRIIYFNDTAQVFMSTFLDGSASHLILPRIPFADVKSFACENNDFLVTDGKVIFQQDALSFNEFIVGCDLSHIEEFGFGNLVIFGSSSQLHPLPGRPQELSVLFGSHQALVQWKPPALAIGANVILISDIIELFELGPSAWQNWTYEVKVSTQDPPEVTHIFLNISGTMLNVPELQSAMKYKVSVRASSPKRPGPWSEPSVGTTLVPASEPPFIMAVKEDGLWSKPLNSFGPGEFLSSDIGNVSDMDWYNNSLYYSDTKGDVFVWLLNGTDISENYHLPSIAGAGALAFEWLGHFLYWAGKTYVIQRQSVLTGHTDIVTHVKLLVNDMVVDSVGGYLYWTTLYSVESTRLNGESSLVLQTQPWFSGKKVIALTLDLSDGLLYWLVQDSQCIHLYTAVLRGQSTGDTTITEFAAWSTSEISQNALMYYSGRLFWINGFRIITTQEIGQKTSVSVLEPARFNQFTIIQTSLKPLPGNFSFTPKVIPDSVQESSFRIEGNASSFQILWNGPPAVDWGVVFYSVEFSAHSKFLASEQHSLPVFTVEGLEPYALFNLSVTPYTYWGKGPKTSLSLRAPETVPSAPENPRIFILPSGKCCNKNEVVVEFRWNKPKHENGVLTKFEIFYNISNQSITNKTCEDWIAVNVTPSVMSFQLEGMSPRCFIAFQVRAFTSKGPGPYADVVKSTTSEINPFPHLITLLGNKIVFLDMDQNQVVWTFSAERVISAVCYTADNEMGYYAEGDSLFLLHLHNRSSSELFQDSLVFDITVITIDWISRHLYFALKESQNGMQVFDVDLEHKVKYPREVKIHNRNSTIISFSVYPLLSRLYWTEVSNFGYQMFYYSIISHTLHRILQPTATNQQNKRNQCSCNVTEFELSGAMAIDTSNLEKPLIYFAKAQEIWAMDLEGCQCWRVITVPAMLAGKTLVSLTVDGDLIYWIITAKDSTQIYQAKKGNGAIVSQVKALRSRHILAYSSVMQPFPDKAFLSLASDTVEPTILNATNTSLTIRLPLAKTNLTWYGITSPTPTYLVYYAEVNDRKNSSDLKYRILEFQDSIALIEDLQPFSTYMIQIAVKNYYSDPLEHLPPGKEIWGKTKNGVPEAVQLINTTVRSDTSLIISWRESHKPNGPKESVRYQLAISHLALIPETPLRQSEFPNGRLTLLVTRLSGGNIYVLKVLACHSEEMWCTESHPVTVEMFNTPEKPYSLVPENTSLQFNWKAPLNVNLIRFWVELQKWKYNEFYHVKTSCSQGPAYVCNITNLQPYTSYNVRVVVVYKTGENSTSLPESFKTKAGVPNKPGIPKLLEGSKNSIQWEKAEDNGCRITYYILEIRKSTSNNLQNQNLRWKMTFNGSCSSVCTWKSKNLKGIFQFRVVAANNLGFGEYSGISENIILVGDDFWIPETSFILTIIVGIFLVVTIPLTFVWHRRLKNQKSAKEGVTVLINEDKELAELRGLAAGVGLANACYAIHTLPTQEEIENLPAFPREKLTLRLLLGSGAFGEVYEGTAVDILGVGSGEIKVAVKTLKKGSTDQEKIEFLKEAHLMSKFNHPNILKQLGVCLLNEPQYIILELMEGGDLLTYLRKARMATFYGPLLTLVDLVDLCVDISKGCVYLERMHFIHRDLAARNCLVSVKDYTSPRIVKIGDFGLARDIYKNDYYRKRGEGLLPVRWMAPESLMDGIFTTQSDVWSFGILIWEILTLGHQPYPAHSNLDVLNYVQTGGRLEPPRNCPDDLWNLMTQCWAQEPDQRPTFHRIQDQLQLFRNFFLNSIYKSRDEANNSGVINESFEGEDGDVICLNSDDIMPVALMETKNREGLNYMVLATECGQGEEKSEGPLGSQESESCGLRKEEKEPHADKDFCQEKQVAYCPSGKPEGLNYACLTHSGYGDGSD
Experimental: (§1) Ba/F3-Ros1 Cell Proliferation Assay
(§2) This assay was carried out with Ba/F3 cells containing three different versions of Ros1: the wild-type protein, protein with a mutation at the gatekeeper residue (L2026M), and protein with a mutation identified in a tumor from a patient that became resistant to crizotinib (Xalkori®) treatment (G2032R). Compounds were solubilized in 100% DMSO (dimethyl sulfoxide) and sprayed into polystyrene, tissue culture treated 384-well plates. A 50 μl volume of cell culture medium (phenol red free RPMI-1640, 10% FBS (fetal bovine serum), 2 mM L-Glutamine) containing 20000 Ba/F3-Ros1 cells was added to each well and the plates were placed in an incubator at 37° C. and 5% CO2. After 24 hours, 10 μl of Alamar Blue solution (0.5 mM K3Fe(CN)6, 0.5 mM K4Fe(CN)6, 0.15 mM Resazurin and 100 mM Phosphate Buffer) was added to the wells, incubated for 4 hours at 37° C. and 5% CO2 before RFU's (Relative Fluorescence Units) (ex. 540 nm., em. 590 nm.) were measured in a fluorescence plate reader.

[2] = tested on: Ba/F3 cells containing Ros1 wild-type protein + IL-3; assay: Ba/F3-Ros1 cell proliferation counter-screen, wild-type protein in the presence of 10 ng/ml murine IL-3; type: cell-based; conditions: Mus musculus, BaF3, 24 h, read-out: BaF3-ROS1 + IL3 pIC50 (converted)
Experimental: as §2
As a counter-screen the same experiment was performed for the wild-type protein in the presence of 10 ng/ml murine IL-3.

[3] = target: Ba/F3 cells containing Ros1 with a mutation at the gatekeeper residue (L2026M) (Homo sapiens, UniProt P08922, L2026M, cells depend on it, form not given); assay: Ba/F3-Ros1 cell proliferation assay, L2026M gatekeeper mutant; type: cell-based, murine; conditions: without IL-3
Ba/F3 cells containing Ros1 with a mutation at the gatekeeper residue (L2026M), sequence (P08922 whole entry L2026M, form open): as the sequence (P08922 whole entry, stated change not applied) above, with L2026M counted along it
Experimental: as §1, §2

[4] = counter-screen, wild-type, 10 ng/ml murine IL-3

Row | Structure (SMILES) | IC50 (Ros1 enzyme) [nM] | BaF3-ROS1-IL3 pIC50 [1] | CC50 [2, 4] [nM] | melting point [°C] | CC50 [2] [nM] | ROS1 pIC50 (Ros1 enzyme) | Ba/F3 Ros1 L2026M (-IL-3) pIC50 [3]
1 | COC(=O)c1ccc(COc2ccc(-c3c(-c4ccncc4)nn4c3C(=O)NCC4)cc2)cc1 [Compound 9a] | 2510 | <5 | > 10000 | 254 |  |  | 
2 | CC(C)c1ccc(COc2ccc(-c3c(-c4ccnc(N)n4)nn4c3C(=O)NCC4)cc2)cc1 [Compound 13] | 20 | 7.5 |  |  | > 10000 |  | 
3 | CC(C)c1ccc(COc2cc(F)c(-c3c(-c4ccncc4)nn4c3C(=O)NCC4)c(F)c2)cc1 [Compound 17] | 501 | 6.8 |  | 235 | > 10000 |  | 
4 | COc1cc(OCc2ccc(C(C)C)cc2)ccc1-c1c(-c2ccncc2)nn2c1C(=O)NCC2 [Compound 34] | 316 | 6.6 |  | 276 | > 10000 |  | 
5 | CC(C)Oc1cc(-c2c(-c3ccncc3)nn3c2C(=O)NCC3)ccc1OCc1ccc(C(C)C)cc1 [Compound 37] | 2510 | 5.4 |  | 206 | > 10000 |  | 
6 | CC(C)c1ccc(COc2ccc(-c3c(-c4ccncc4)nn4c3C(=O)N(CCC#N)CC4)cc2)cc1 [Compound 57] | 25.1 | 7.7 |  | 158 | > 10000 |  | 
7 | CC(C)c1ccc(COc2ccc(-c3c(-c4ccncc4)nn4c3C(=O)N(CCN)CC4)cc2)cc1 [Compound 59a] |  | 6.6 |  |  |  | 7.2 | 
8 | CC(C)c1ccc(COc2ccc(-c3c(-c4ccncc4)nn4c3C(=O)N(CC(=O)O)CC4)cc2)cc1 [Compound 66] | 251 | 5.1 |  |  | > 10000 |  | 
9 | COc1cc(COc2ccc(-c3c(-c4ccncc4)nn4c3C(=O)NCC4)cc2)ccc1C(C)C [Compound 80] | 126 | 6.9 |  | 232 | > 10000 |  | 
10 | CC(C)c1ccc(COc2ccc(-c3c(-c4ccncc4)nn4c3C(=O)N(C)CC4)cc2)cc1CCO [Compound 82] | 10 | 7.6 |  |  | > 10000 |  | 7.3
11 | COCCOc1cc(COc2ccc(-c3c(-c4ccncc4)nn4c3C(=O)NCC4)cc2)ccc1C [Compound 104] | 1260 | 6.1 |  | 190 | > 10000 |  | 
12 | CCC(C)c1ccc(COc2ccc(-c3c(-c4ccncc4)nn4c3C(=O)NCC4)cc2)cc1 (stereo not shown) [Compound 106] | 25.1 | 7.5 |  | 229 | > 10000 |  | 
13 | CC(C)Cc1ccc(COc2ccc(-c3c(-c4ccncc4)nn4c3C(=O)NCC4)cc2)cc1 [Compound 108] | 126 | 7.0 |  | 233 | > 10000 |  | 
14 | CC(C)c1cccc(COc2ccc(-c3c(-c4ccncc4)nn4c3C(=O)NCC4)cc2)c1 [Compound 110] | 126 | 6.9 |  | 268 | > 10000 |  | 
15 | COc1cccc(COc2ccc(-c3c(-c4ccncc4)nn4c3C(=O)NCC4)cc2)c1 [Compound 113] | 794 | 6.0 | > 10000 | 242 |  |  | 
16 | CC(C)Oc1ccc(COc2ccc(-c3c(-c4ccncc4)nn4c3C(=O)NCC4)cc2)cc1 [Compound 114] | 501 | 6.4 |  | 252 | > 10000 |  | 
17 | NCc1cccc(COc2ccc(-c3c(-c4ccncc4)nn4c3C(=O)NCC4)cc2)c1 [Compound 133] | > 10000 | 5.6 | > 10000 |  |  |  | 
18 | CC(C)c1ccc(COc2ccc(-c3c(-c4ccncc4)nn4c3CN(CC(=O)N3CCCC3)CC4)cc2)cc1 [Compound 179] | 501 | 6.4 | > 10000 |  |  |  | 
19 | CC(O)C(=O)N1CCn2nc(-c3ccncc3)c(-c3ccc(OCc4ccc(C(C)C)cc4)cc3)c2C1 (stereo not shown) [Compound 180] | 501 | 6.5 | > 10000 |  |  |  | 
20 | CNCC(=O)N1CCn2nc(-c3ccncc3)c(-c3ccc(OCc4ccc(C(C)C)cc4)cc3)c2C1 [Compound 182] | 1260 | 5.7 | 5010 |  |  |  | 
21 | COc1ccc(COc2ccc(-c3c(-c4ccncc4)nn4c3CNCC4)cc2)cc1 [Compound 188] | 3980 | 5.5 | > 10000 |  |  |  | 
22 | CC1Cn2nc(-c3ccncc3)c(-c3ccc(OCc4ccc(C5CC5)cc4)cc3)c2CN1 (stereo not shown) [Compound 190] | 631 | 6.1 | > 10000 |  |  |  | 
23 | CC(C)c1ccc(COC2CCN(c3c(-c4ccncc4)nn4c3C(=O)NCC4)CC2)cc1 [Compound 198] | 251 | 6.6 |  |  | > 10000 |  | 
24 | CC(C)c1ccc(COc2ccc(-c3c(-c4ccncc4)nn4c3C(=O)NCC4)c(F)c2)cc1CCO [Compound 204] | 6.31 | 7.9 |  |  | > 10000 |  | 7.8
25 | CC(C)c1ccc(COc2ccc(-c3c(-c4ccncc4)nn4c3C(=O)N(CCO)CC4)cn2)cc1 [Compound 212] | 39.8 | 7.3 |  |  | > 10000 |  | 6.8
26 | CC(C)c1ccc(C(Oc2ccc(-c3c(-c4ccncc4)nn4c3C(=O)NCC4)cc2)C(=O)NCCO)cc1 (stereo not shown) [Compound 218] | 200 | 6.3 |  |  | > 10000 |  | 
27 | CC(C)c1ccc(COc2ccc(-c3c(-c4ccncn4)nn4c3CN(CCO)CC4)cc2)cc1 [Compound 220] | 501 | 6.5 | > 10000 |  |  |  | 
28 | CC(C)c1ccc(C2CNc3cc(-c4c(-c5ccncc5)nn5c4C(=O)NCC5)cnc3O2)cc1 (stereo not shown) [Compound 223] | 398 | 6.5 |  |  | > 10000 |  | 
29 | CC(C)c1ccc(C2CNc3cc(-c4c(-c5ccncc5)nn5c4C(=O)NCC5)ccc3O2)cc1 (stereo not shown) [Compound 224] | 398 | 6.7 | > 10000 |  |  |  | 
30 | CC(C)c1ccc(C2CNc3cc(-c4c(-c5ccncc5)nn5c4C(=O)NCC5)ccc3O2)cc1 (stereo not shown) [Compound 225] | 316 | 6.7 |  |  |  |  | 
